Test results reported in patent publication US12064409B2, “Action of L-citrulline to prevent or treat endothelial dysfunction” (Asklepion Pharmaceuticals, LLC, priority 2021, dated 2024).
Where two headings read alike, the source gives them in different places.

Assays:
[1] = in vivo, iv
[2] = human, in vivo; cited from earlier work
COVID-19 (SARS-CoV2) = experiment: Example I, intravenous citrulline treatment of hospitalized Covid-19 patients; assay type: in vivo; settings: intravenous bolus 20 mg/kg then 9 mg/kg per hour infusion up to 10 days
Method: Subjects hospitalized and requiring oxygen for an acute hypoxemic respiratory illness due to COVID-19 (SARS-CoV2) will be treated. In addition, subjects will receive standard supportive care for acute hypoxemic respiratory illness and failure. The assessment of efficacy will include collection of plasma for analysis of citrulline and arginine levels at 2 hours, 12 hours, and the alternating morning of study days. Optionally, samples may also be analyzed for D-dimer and angiopoietin-2 levels.
The assessment of efficacy will include collection of plasma for analysis of citrulline and arginine levels at 2 hours, 12 hours, and the alternating morning of hospitalization days. Additional efficacy measures will include clinical outcomes, including progression of acute lung injury and, lengths of hospital and ICU stay. The assessment of safety will include collection of hemodynamic measurements at least every 4 hours on a hospital unit.
Patients will receive an initial intravenous bolus of 20 mg/kg (to a maximum of 1500 mg) L-citrulline over 10 minutes. The infusion solution will be prepared as a 5% isotonic solution (50 mg/mL) in 5% dextrose water. […]
Participant survival will be assessed at hospital discharge. […] Hospital length of stay will be calculated as the number of days from admission to hospital discharge.

[3] = Phase IB trial of intravenous L-citrulline versus placebo in children undergoing cardiopulmonary bypass (IND #66,261); assay type: in vivo
Excerpt: FIG. 1. Duration of mechanical ventilation therapy following cardiopulmonary bypass in citrulline treated and control patients.
FIG. 2. Duration of inotrope therapy following cardiopulmonary bypass in citrulline treated and control patients.
FIG. 3. Maximum of mechanical ventilation or inotrope therapy (surrogate for duration of ICU stay) following cardiopulmonary bypass in citrulline treated and control patients.
A recent study^39 carried out under IND #66,261 examined whether maintenance of plasma citrulline levels at steady state levels at or above 100 micromolar would prevent the occurrence of pulmonary complications of cardiopulmonary bypass in children undergoing congenital heart repair surgery. For pulmonary function, the endpoint was the post-operative duration of mechanical ventilation (see FIG. 1). Alternative endpoints included the duration of post-operative inotrope therapy (see FIG. 2) and the length of time in the intensive care unit (see FIG. 3).

[4] = cited from earlier work
[5] = in vivo; cited from earlier work
[6] = plasma citrulline 12 h postoperatively <37 μmol/L

With `NC(=O)NCCC[C@H](N)C(=O)O` [citrulline, L-citrulline] as the compound, how does the Drug-associated adverse events [1] read?
The Drug-associated adverse events was “no drug-associated adverse events”.

And the Adverse effects [2]?
Its Adverse effects is “no observed adverse effects”.

And the “Length of time to an intubation event from the start of study infusion” value (COVID-19 (SARS-CoV2))?
The value was “extend the length of time to an intubation event”.

What about the “Total length of all mechanical ventilation, including non-invasive modalities” value (COVID-19 (SARS-CoV2)) of the same compound?
The value was “reduce the total length of all mechanical ventilation”.

And the “Duration of mechanical ventilation therapy following cardiopulmonary bypass” value ([3]; citrulline treated vs control patients, Wilcoxon rank-sum p=0.0089, plasma citrulline at or above 100 micromolar)?
The value was “treated differs from control”.

What about the “Duration of inotrope therapy following cardiopulmonary bypass” value ([3]; citrulline treated vs control patients, Wilcoxon rank-sum p=0.0351) of the same compound?
Its value is “treated differs from control”.

What about the “Maximum of mechanical ventilation or inotrope therapy (surrogate for duration of ICU stay) following cardiopulmonary bypass” value ([3]; citrulline treated vs control patients, Wilcoxon rank-sum p=0.0479) of the same compound?
The value was “treated differs from control”.

What about the “Complications of cardiopulmonary bypass” value ([3]; plasma citrulline maintained at or above 100 micromolar, by time on mechanical ventilation and duration of inotrope therapy) of the same compound?
Its value is “prevented the complications of bypass”.

And the “Pulmonary hypertension absent (number of patients)” value [4, 6]?
The value was 18.

And the “Pulmonary hypertension present (number of patients)” value [4, 6]?
Its value is 9.

And the “Pulmonary hypertension present (number of patients)” value ([4]; plasma citrulline 12 h postoperatively >37 μmol/L, P value .036)?
Its value is “*0”.

And the “Pulmonary hypertension absent (number of patients)” value ([4]; plasma citrulline 12 h postoperatively >37 μmol/L)?
The value was 12.

What about the “half-life of citrulline in plasma” value [5] of the same compound?
The value was “about 1 hour”.
